Results published in patent US20250235460A1, “COMBINATION THERAPY USING GLUCOSE-DEPENDENT INSULINOTROPIC POLYPEPTIDE RECEPTOR ANTAGONIST COMPOUNDS AND GLP-1 RECEPTOR AGONIST COMPOUNDS” (Pfizer Inc., priority 2024, published 2025).

Experiments:
human GLP-1R [1] = molecular target: human GLP-1R (Homo sapiens, UniProt P43220, G168S); test: CHO GLP-1R Clone H6 cAMP HTRF agonist assay (Assay 1, high receptor density); type: cell-based; conditions: for EC50: CHO GLP-1R clone H6, cAMP HTRF, geometric mean; for Emax: CHO GLP-1R clone H6, arithmetic mean, relative to saturating GLP-1 (1 μM), read-out: Assay 1 Emax (%)
Outline: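 EC50 values are reported as geometric means and Emax as arithmetic means across the listed number of replicates, both given to two significant figures.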

human GLP-1R [2] = molecular target: human GLP-1R (Homo sapiens, UniProt P43220, L260F); test: CHO GLP-1R Clone C6 cAMP HTRF agonist assay (Assay 2, low receptor density); type: cell-based; conditions: for EC50: CHO GLP-1R clone C6, cAMP HTRF, geometric mean; for Emax: CHO GLP-1R clone C6, arithmetic mean, relative to saturating GLP-1 (1 μM)
Text: In Table 5 and Table 6, assay data are presented to two (2) significant figures as the geometric mean (EC50s) and arithmetic mean (Emax) based on the number of replicates listed (Number). A blank cell means there was no data for that Example or the Emax was not calculated.

human GLP-1R (Homo sapiens, UniProt P43220, G168S), sequence (P43220 24-463 G168S): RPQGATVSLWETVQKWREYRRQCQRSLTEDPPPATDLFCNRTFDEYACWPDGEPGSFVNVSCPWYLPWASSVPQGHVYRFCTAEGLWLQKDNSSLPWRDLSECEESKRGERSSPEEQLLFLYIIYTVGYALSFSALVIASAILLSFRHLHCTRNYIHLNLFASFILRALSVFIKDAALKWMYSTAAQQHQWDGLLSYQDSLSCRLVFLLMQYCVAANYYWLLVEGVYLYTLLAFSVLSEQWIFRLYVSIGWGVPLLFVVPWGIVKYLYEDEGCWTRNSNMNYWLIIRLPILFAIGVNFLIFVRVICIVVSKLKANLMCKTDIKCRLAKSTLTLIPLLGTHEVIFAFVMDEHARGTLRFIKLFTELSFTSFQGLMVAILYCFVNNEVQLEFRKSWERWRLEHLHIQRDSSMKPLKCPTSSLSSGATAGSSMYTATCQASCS
human GLP-1R (Homo sapiens, UniProt P43220, L260F), sequence (P43220 24-463 L260F): as the sequence (P43220 24-463 G168S) above, with S145G, L237F counted along it

| EC50 (human GLP-1R [1]) [nM] | Emax (human GLP-1R [1]) [%] | EC50 (human GLP-1R [2]) [nM] | Emax (human GLP-1R [2]) [%] | Structure (SMILES) |
| --- | --- | --- | --- | --- |
| 0.96 | 80 | 14 | 95 | O=C(O)c1ccc2nc(CN3CCC(c4cccc(OCc5ccc(Cl)cc5F)n4)CC3)n(Cc3ncco3)c2c1 [Compound 156B, 2-[(4-{6-[(4-chloro-2-fluorobenzyl)oxy]pyridin-2-yl}piperidin-1-yl)methyl]-1-(1,3-oxazol-2-ylmethyl)-1H-benzimidazole-6-carboxylic acid] |
| 38 | – | 760 | 91 | Cn1c(CN2CCC(c3cccc(OCc4ccc(Cl)cc4F)n3)CC2)nc2cc(F)c(C(=O)O)cc21 [Compound 206B, 2-[(4-{6-[(4-chloro-2-fluorobenzyl)oxy]pyridin-2-yl}piperidin-1-yl)methyl]-5-fluoro-1-methyl-1H-benzimidazole-6-carboxylic acid] |
| 5.8 | 72 | 94 | 76 | Cn1nncc1Cn1c(CN2CCC(c3cccc(OCc4ccc(Cl)cc4F)n3)CC2)nc2ccc(C(=O)O)cc21 [Compound 144B, 2-[(4-{6-[(4-chloro-2-fluorobenzyl)oxy]pyridin-2-yl}piperidin-1-yl)methyl]-1-[(1-methyl-1H-1,2,3-triazol-5-yl)methyl]-1H-benzimidazole-6-carboxylic acid] |
| 24 | 76 | 1200 | 94 | Cn1cncc1Cn1c(CN2CCN(c3cccc(OCc4ccc(Cl)cc4F)n3)CC2)nc2ccc(C(=O)O)cc21 [Compound 153B, 2-[(4-{6-[(4-chloro-2-fluorobenzyl)oxy]pyridin-2-yl}piperazin-1-yl)methyl]-1-[(1-methyl-1H-imidazol-5-yl)methyl]-1H-benzimidazole-6-carboxylic acid] |
| 0.52 | 70 | 8.5 | 78 | CC1CN(c2cccc(OCc3ccc(C#N)cc3F)n2)CCN1Cc1nc2ccc(C(=O)O)cc2n1Cc1cnco1 (stereo in doubt) [Compound 242B, 2-{[(2S)-4-{6-[(4-cyano-2-fluorobenzyl)oxy]pyridin-2-yl}-2-methylpiperazin-1-yl]methyl}-1-(1,3-oxazol-5-ylmethyl)-1H-benzimidazole-6-carboxylic acid] |
| 0.59 | 83 | 6.8 | 93 | CC1(Cn2c(CN3CCC(c4cccc(OCc5ccc(Cl)cc5F)n4)CC3)nc3ccc(C(=O)O)cc32)COC1 [Compound 251B, 2-[(4-{6-[(4-chloro-2-fluorobenzyl)oxy]pyridin-2-yl}piperidin-1-yl)methyl]-1-[(3-methyloxetan-3-yl)methyl]-1H-benzimidazole-6-carboxylic acid] |
| 2.4 | 71 | 38 | 83 | Cn1cnnc1Cn1c(CN2CCC(c3cccc(OCc4ccc(C#N)cc4F)n3)CC2)nc2ccc(C(=O)O)cc21 [Compound 188B, 2-[(4-{6-[(4-cyano-2-fluorobenzyl)oxy]pyridin-2-yl}piperidin-1-yl)methyl]-1-[(4-methyl-4H-1,2,4-triazol-3-yl)methyl]-1H-benzimidazole-6-carboxylic acid] |
| 190 | 80 | 3600 | 93 | Cc1ccn(CCn2c(CN3CCC(c4cccc(OCc5ccc(Cl)cc5F)n4)CC3)nc3ccc(C(=O)O)cc32)n1 [Compound 306B, 2-[(4-{6-[(4-chloro-2-fluorobenzyl)oxy]pyridin-2-yl}piperidin-1-yl)methyl]-1-[2-(3-methyl-1H-pyrazol-1-yl)ethyl]-1H-benzimidazole-6-carboxylic acid] |
| 450 | 71 | 5600 | 76 | O=C(O)c1ccc2nc(CN3CCC(c4cccc(OCc5ccc(Cl)cc5F)n4)CC3)n(CCc3c[nH]cn3)c2c1 [Compound 316B, 2-[(4-{6-[(4-chloro-2-fluorobenzyl)oxy]pyridin-2-yl}piperidin-1-yl)methyl]-1-[2-(1H-imidazol-4-yl)ethyl]-1H-benzimidazole-6-carboxylic acid] |
| > 15000 | 98 | > 20000 | – | O=C(O)c1cc2c(cn1)nc(CN1CCC(c3cccc(OCc4ccc(Cl)cc4F)n3)CC1)n2C[C@@H]1CCO1 [Compound 203B, 2-[(4-{6-[(4-chloro-2-fluorobenzyl)oxy]pyridin-2-yl}piperidin-1-yl)methyl]-1-[(2S)-oxetan-2-ylmethyl]-1H-imidazo[4,5-c]pyridine-6-carboxylic acid] |
| 1.9 | 63 | 55 | 75 | N#Cc1ccc(COc2cccc(C3CCN(Cc4nc5ccc(C(=O)O)cc5n4CC4CCCO4)CC3)n2)cc1 (stereo not drawn) [Compound 359B, 2-[(4-{6-[(4-cyanobenzyl)oxy]pyridin-2-yl}piperidin-1-yl)methyl]-1-(tetrahydrofuran-2-ylmethyl)-1H-benzimidazole-6-carboxylic acid] |
| 6 | 73 | 99 | 81 | Cn1c(CN2CCC(c3cccc(OCc4ccc(OC(F)(F)F)cc4)n3)CC2)nc2ccc(C(=O)O)cc21 [Compound 228B, 1-methyl-2-{[4-(6-{[4-(trifluoromethoxy)benzyl]oxy}pyridin-2-yl)piperidin-1-yl]methyl}-1H-benzimidazole-6-carboxylic acid] |
| 7.9 | 80 | 150 | 100 | O=C(O)c1ccc2nc(CN3CCC(c4cccc(OCc5ccc(Cl)cc5F)n4)CC3)n(Cc3cocn3)c2c1 [Compound 155B, 2-[(4-{6-[(4-chloro-2-fluorobenzyl)oxy]pyridin-2-yl}piperidin-1-yl)methyl]-1-(1,3-oxazol-4-ylmethyl)-1H-benzimidazole-6-carboxylic acid] |
| 110 | 79 | 2200 | – | O=C(O)c1ccc2nc(CN3CCC(c4cccc(OCc5ccc(Cl)cc5F)n4)CC3)n(Cc3cc[nH]n3)c2c1 [Compound 299B, 2-[(4-{6-[(4-chloro-2-fluorobenzyl)oxy]pyridin-2-yl}piperidin-1-yl)methyl]-1-(1H-pyrazol-3-ylmethyl)-1H-benzimidazole-6-carboxylic acid] |
| 9.4 | 69 | 160 | 71 | C[C@H]1CN(c2cccc(OCc3ccc(C#N)cc3F)n2)CCN1Cc1nc2ccc(C(=O)O)cc2n1Cc1cocn1 [Compound 241B, 2-{[(2S)-4-{6-[(4-cyano-2-fluorobenzyl)oxy]pyridin-2-yl}-2-methylpiperazin-1-yl]methyl}-1-(1,3-oxazol-4-ylmethyl)-1H-benzimidazole-6-carboxylic acid] |
| 6.3 | 83 | 110 | 87 | COCCn1c(CN2CCN(c3cccc(OCc4ccc(Cl)cc4F)n3)C[C@@H]2C)nc2ccc(C(=O)O)cc21 [Compound 355B, 2-{[(2S)-4-{6-[(4-chloro-2-fluorobenzyl)oxy]pyridin-2-yl}-2-methylpiperazin-1-yl]methyl}-1-(2-methoxyethyl)-1H-benzimidazole-6-carboxylic acid] |
| 0.33 | 82 | 13 | 110 | COCCn1c(CN2CCC(c3cccc(OCc4c(F)cc(Cl)cc4F)n3)CC2)nc2ccc(C(=O)O)cc21 [Compound 220B, 2-((4-(6-((4-chloro-2,6-difluorobenzyl)oxy)pyridin-2-yl)piperidin-1-yl)methyl)-1-(2-methoxyethyl)-1H-benzo[d]imidazole-6-carboxylic acid] |
| – | 84 | – | 70 | [2H]C([2H])(Oc1cccc(C2CCN(Cc3nc4ccc(C(=O)O)cc4n3C[C@@H]3CCO3)CC2)n1)c1ccc(C#N)cc1F [Compound 112B, 2-{[4-(6-{[(4-cyano-2-fluorophenyl)(methyl-d2)]oxy}pyridin-2-yl)piperidin-1-yl]methyl}-1-[(2S)-oxetan-2-ylmethyl]-1H-benzimidazole-6-carboxylic acid] |
| 7 | 59 | 190 | 80 | Cc1nc2nc(CN3CCC(c4cccc(OCc5ccc(Cl)cc5F)n4)CC3)n(C)c2cc1C(=O)O [Compound 209B, 2-[(4-{6-[(4-chloro-2-fluorobenzyl)oxy]pyridin-2-yl}piperidin-1-yl)methyl]-1,5-dimethyl-1H-imidazo[4,5-b]pyridine-6-carboxylic acid] |
| 0.56 | 73 | 9.6 | 84 | Cn1c(CN2CCC(c3cccc(OCc4cc(F)ccc4F)n3)CC2)nc2ccc(C(=O)O)cc21 [Compound 233B, 2-[(4-{6-[(2,5-difluorobenzyl)oxy]pyridin-2-yl}piperidin-1-yl)methyl]-1-methyl-1H-benzimidazole-6-carboxylic acid] |
| 16 | 85 | 320 | 88 | N#Cc1ccc(COc2cccc(N3CCN(Cc4nc5ccc(C(=O)O)cc5n4C[C@@H]4CCO4)CC3)n2)c(F)c1 [Compound 108B, 2-[(4-{6-[(4-cyano-2-fluorobenzyl)oxy]pyridin-2-yl}piperazin-1-yl)methyl]-1-[(2S)-oxetan-2-ylmethyl]-1H-benzimidazole-6-carboxylic acid] |

| Structure (SMILES) | EC50 (human GLP-1R [1]) [nM] | Emax (human GLP-1R [1]) [%] | EC50 (human GLP-1R [2]) [nM] | Emax (human GLP-1R [2]) [%] |
| --- | --- | --- | --- | --- |
| C[C@H]1CN(c2cccc(OCc3ccc(C#N)cc3F)n2)CCN1Cc1nc2ccc(C(=O)O)cc2n1CC1CCCO1 (stereo partly drawn) [Compound 364B, 2-{[(2S)-4-{6-[(4-cyano-2-fluorobenzyl)oxy]pyridin-2-yl}-2-methylpiperazin-1-yl]methyl}-1-(tetrahydrofuran-2-ylmethyl)-1H-benzimidazole-6-carboxylic acid] | 1.4 | – | 20 | – |
